Where two headings read alike, the source gives them in different places.
How the values were obtained:
ApoA-I mRNA = experiment: Regulation of ApoA-I mRNA in HepG2 cells (real-time PCR); type: cell-based; design: key: Active: When 100 μM of the tested compound allowed ApoA-I mRNA in HepG2 cells to increase more than 15%, then the test compound was known as an ApoA active compound; conditions: 100 μM, 48 h, relative to DMSO control
Description: Experiment 5. Regulation of the Tested Compounds on ApoA-I mRNA HepG2 cells were cultured for 24 h in a 24-well plate with 400 μl of MEM medium containing 0.5% (v/v) of fetal bovine serum. Then each of the tested compounds (100 μM) and the positive control RVX-208 (100 μM) were added. The cells were cultured for another 48 h. The medium was aspirated out. After washing with 200 μl of PBS, 85 μl of cell lysis solution was added into the cells in each well. The cells were incubated at room temperature for 5 to 10 min to be completely dissolved and detached. The mRNA was extracted from the cells with a kit. The extracted mRNA were used for a real-time fluorescence quantitative PCR detection with RNA Fluorescence (RiboGreen) Quantitation Assay Kit and ApoA-I mRNA Primer-Probe Mixture from the company of Applied Biosystems.
After obtaining the Ct values, the induction fold of each test compound relative to DMSO control was calculated. The induction fold was used to reflect the ability of regulating ApoA-I mRNA for the tested compounds. When 100 μM of the tested compound allowed ApoA-I mRNA in HepG2 cells to increase more than 15%, then the test compound was known as an ApoA active compound.

[1] = rat, in vivo
Description: Experimental method: Intravenous injection solutions (the administration concentrations of the tested compounds were 1 mg/kg) and oral gastric perfusates (the administration concentrations of the test compounds were 5 mg/kg) of the test compounds were prepared, and intravenously and orally administered to three SD rats, respectively. The concentrations of the whole blood for H130 at 0.083 h, 0.25 h, 0.5 h, 1 h, 2 h, 4 h, 8 h, and 24 h after administration were determined by LC-MS/MS, respectively. The pharmacokinetic parameters were compared by a drug-time curve. Sample pretreatment: 150 μL of the whole blood to be tested was aspirated accurately. 600 μL of internal standard solution (diluted to 0.5 μg/mL with methanol) was added, sufficiently mixed by a vortex mixer, and centrifuged at 13000 r/min for 20 min at 4° C. 3 μL of the supernatant was taken into a sample vial.
Chromatographic conditions: C18 reversed-phase chromatographic column; gradient elution with mobile phase A: water/acetonitrile (v:v=95:5) with 0.025% of formic acid and 1 mM of ammonium acetate added thereto, and mobile phase B: acetonitrile/water (v:v=95:5) with 0.025% of formic acid and 1 mM of ammonium acetate added thereto.

[2] = 2 h
Description: Experimental method: The tested compounds (2 μM) were added into mouse or human plasma, and incubated at 37° C. Samples were taken at 0, 10, 30, 60 and 120 min respectively. The reaction was stopped by adding a stop agent. The mixture was sufficient shaken, and centrifuged at 4000 rpm for 10 min at 4° C. The supernatant was taken. The concentrations of the tested compounds and their metabolite (H130) in the supernatant were measured by LC-MS/MS.

apoE−/− mice = experiment: apoE−/− mouse atherosclerosis model, high-fat diet 10 weeks; type: in vivo
Description: Experimental method: 36 eight-week-old male apoE-/- mice were selected and randomly divided into a blank administration group, an […] administration group, an […] administration group, an […] administration group, an […] administration group, and an […] administration group, 6 mice per group. The mice in each group were fed with high-fat diet for 10 weeks. At the beginning of the high-fat feeding, the mice in each group were administrated. Each tested compound was intragastric administered at the dose of 150 mg/kg twice a day. The blank administration group was given corresponding dose of saline. […] After the blood was taken, the serum, heart, and aorta were isolated. The levels of total cholesterol (TC), high density lipoprotein cholesterol (HDL-C), and low density lipoprotein cholesterol (LDL-C) in the serum of the mice in each group were measured by automatic biochemical analyzer. The ApoA1 expression level was detected with an ApoA1 kit. The content of NO in the serum of the mice was determined with a total NO test kit (Beyotime). The NOS activities of the heart, aorta, and serum were determined with an NOS test kit (Beyotime). The content of eNOS was calculated by the difference between the measured values determined before and after adding eNOS inhibitor L-NAME (Beyotime).

db/db mice = experiment: Serum NO and heart eNOS in db/db mice after oral gavage; type: in vivo; conditions: blank = 100, oral gavage 150 mg/kg (isosorbide mononitrate 5 mg/kg), 1 h after administration (H101: 2 h)
Description: Experimental method: 25 eight-week-old db/db mice (strain: BKS.Cg−+Leprdb/+leprdb/JclSlac; grade: SPF; gender: male; source: Shanghai SLAC Laboratory Animal Co., Ltd.) were selected. 3 of them were selected as the blank administration control. 2 mice were used as the positive drug control (isosorbide mononitrate). The remaining 20 mice were randomly divided into 5 groups, 4 mice per group, which are H101 administration group, H111 administration group, H116 administration group, H119 administration group, and H130 administration group. The tested compounds of the positive drug control group and each administration group were dissolved in DMSO. Then PEG400 was added. The mixture was shaken and mixed thoroughly. At last, 10% of HP-β-CD was added. The mixture was shaken and mixed thoroughly. The ratio of each solvent was DMSO: PEG400:10% of HP-β-CD=5:67.5:27.5. The administration group was administered by oral gavage at the dose of 150 mg/kg. The positive drug control group was administered at the dose of 5 mg/kg. The mice in the H101 administration group were sacrificed at 2 h after the administration. The mice in the remaining administration groups were sacrificed at 1 h after the administration. The blood was collected respectively into 1.5 mL centrifuge tube, standing at room temperature for more than 30 min, and then centrifuged (3000 rpm, 10 min). The supernatant serum was aspirated, and stored at −80° C. for testing. After the blood was collected, the heart was cut with the thoracic aorta. Three parts of the heart were weighed and placed into cryovials, rapidly frozen in liquid nitrogen, and cryopreserved at −80° C. for testing. The aorta and aortic arch were weighed, rapidly frozen in liquid nitrogen, and cryopreserved at −80° C. for testing. The content of NO in the serum of the […] mice was determined by a total NO test kit (Beyotime). The content of NOS in the heart of the mice was determined with an NOS test kit (Beyotime). The content of eNOS was calculated by the difference between the measured values before and after adding the eNOS inhibitor L-NAME (Beyotime).

[3] = Release of HNO (headspace gas chromatography of nitrous oxide); conditions: PBS pH 7.4, 37° C., argon, 90 min
Description: Experiment 2. Experimental study on the tested compounds for releasing HNO HNO rapidly dimerizes and dehydrates to produce nitrous oxide in aqueous solution. In the experiment of detecting HNO, gas chromatographic headspace analysis is generally used to determine the amount of the released nitrous oxide, thereby indirectly detect the level of releasing HNO of the compound.
Experimental procedure: Each of the tested compounds was prepared to 20 mg/mL of mother liquor with DMF. Prior to the start of the experiment, 50 μL of drug mother liquor was placed into a 20 mL headspace sample vial. The tested compound was diluted by adding 5 mL of PBS buffer with pH 7.4. The temperature of the resulting sample was kept at 37° C. under argon gas for 90 min. Then the top gas was extracted for gas chromatographic analysis of nitrous oxide by using Angeli's Salt as a positive compound in the experiment.

[4] = blank administration group = 100, 150 mg/kg twice a day, 10 weeks
[5] = serum, high-fat diet 10 weeks, intragastric 150 mg/kg twice a day

release of prototype compound H130 after administration [1]: can be rapidly released
AUCRatio (Dosage Calibration) ([1]; iv, 1 mg/kg): 51.6%
AUCRatio (Dosage Calibration) ([1]; po, 5 mg/kg): 45.3%
stability in human plasma [2]: good stability
Compound: COc1cc(OC)c2c(=O)[nH]c(-c3cc(C)c(OCCOC(=O)CCC(=O)ONS(=O)(=O)c4cccc(S(C)(=O)=O)c4)c(C)c3)nc2c1 [Compound H116]
Upregulation of Apoa-I Mrna Level (ApoA-I mRNA): Active
Aorta eNOS (apoE−/− mice; [4]): 136%
ApoA1 (apoE−/− mice; [4]): 128%
Heart eNOS (apoE−/− mice; [4]): 148%
Serum NO (apoE−/− mice; [4]): 138%
Serum eNOS (apoE−/− mice; [4]): 123%
HDL-C (apoE−/− mice; [5]): 74 ± 11 mg/dL
LDL-C (apoE−/− mice; [5]): 315 ± 31 mg/dL
TC (apoE−/− mice; [5]): 1123 ± 73 mg/dL
Heart eNOS (db/db mice): 159%
Serum NO (db/db mice): 147%
Molar Quantities of N2O/Sample [3]: 15.3%

— US10456405B2, “Nitric oxide-releasing prodrug molecule of substituted quinazolines” (ZHEJIANG HUAHAI PHARMACEUTICAL CO., LTD, priority 2015, dated 2019)
